Reference: publication PMC9906736, “Sodium-Dependent Neutral Amino Acid Transporter 2 Can Serve as a Tertiary Carrier for L-Type Amino Acid Transporter 1-Utilizing Prodrugs” (Molecular Pharmaceutics, 2023)
Entries after “also recorded” stand apart in the source; their conditions may differ.

Tests used:
MCF-7 cells = assay: Concentration-dependent cellular uptake into MCF-7 cells at various pH, with and without Na+; format: cell-based, human; conditions: for cellular uptake at pH 8.5 compared to pH 7.4 / cellular uptake at pH 8.5 in the absence of Na+ / cellular uptake at pH 5.5 compared to pH 7.4: 1–200 μM, 30 min; for cellular uptake at pH 8.5 in the absence of Na+: compared to presence of Na+; for Km: pH 8.5, read-out: Km(uM)@pH8.5
Experimental: MCF-7 human breast adenocarcinoma cells (HTB-22) were purchased from the American Type Culture Collection (ATCC, Manassas, VA, USA). MCF-7 cells were cultured in Dulbecco’s modified Eagle’s medium supplemented with L-glutamine (2.0 mM), heat-inactivated fetal bovine serum (10%), and penicillin (50 U/mL)–streptomycin (50 μg/mL) solution. MCF-7 cells (passages 8–25) were seeded at the density of 1 × 10^5 cells/well onto 24-well plates. The cells were used for the uptake experiments 1 day after seeding. All the studies were carried out as three biological replicates from the same cell passage.
For the following experiments, the MCF-7 cells were cultured, seeded, washed with HBSS, and preincubated as described above at the desired conditions (pH 5.5, 7.4, or 8.5, with and without Na^+). […] Subsequently, the cells were washed three times with ice-cold HBSS and lysed with 500 μL of 0.1 M NaOH (60 min). […] The cell-associated concentrations of each compound normalized to protein concentration were calculated from the standard curve that was prepared by spiking known concentrations of compounds to ACN including the selected internal standard (diclofenac to all studied compounds). The protein concentrations on each plate were determined as a mean of three samples by Bio-Rad Protein Assay based on the Bradford dye-binding method using BSA as a standard protein and measuring the absorbance (595 nm) by a multiplate reader (EnVision, PerkinElmer, Inc., Waltham, MA, USA).

SNATs [1] = assay: Competitive cellular uptake in the presence of unselective SNAT ligand MeAIB in MCF-7 cells; format: cell-based, human; conditions: 100 μM compound, 100 μM MeAIB, pH 7.4 or 8.5, 30 min
Experimental: The competitive uptake in the presence of unselective SNAT ligand, MeAIB (100 μM),[31],[32] was carried out as described above with HBSS buffer at pH 7.4 or pH 8.5 containing 100 μM of the studied compound. The cells were preincubated with the inhibitors for 10 min, and the incubation mixture was removed before adding the studied compound and the inhibitor to the cells. The competitive uptake (30 min) with the inhibitor was then carried out as the normal uptake described above. The concentrations of studied compounds were analyzed by the LC–MS/MS method and calculated from the spiked standard curve and normalized with the protein concentrations.

LAT1 [2] = conditions: cited from earlier work; for IC50: ability to compete with natural LAT1-substrate L-Leu, read-out: IC50 (μM) of [^14C]-L-Leu Uptake; for LAT1 Properties (in words): merged cell over IC50, CLint and Kp columns
LAT1 [3] = system: LAT1; design: unit not given here; conditions: CLint = Vmax/Km; cited from earlier work
[4] = brain accumulation; cited from earlier work
SNATs [5] = assay: Functionality of SNATs in MCF-7 cells with [3H]-L-proline uptake; format: cell-based, human; conditions: for inhibition of the uptake of [^3H]-L-proline: MeAIB 100 μM
Experimental: After removal of the culture medium, MCF-7 cells were carefully washed with prewarmed HBSS (Hank’s balanced salt solution) containing 125.0 mM NaCl (or choline chloride in Na^+-free conditions), 4.8 mM KCl, 1.2 mM MgSO4, 1.2 mM KH2PO4, 1.3 mM CaCl2, 5.6 mM glucose, and 25.0 mM 4-(2-hydroxyethyl)piperazine-1-ethanesulfonic acid (HEPES) with pH adjusted to either 7.4 or 8.5 with 1 M NaOH (or KOH in sodium-free conditions). In the experiments at lower pH (4.5–6.5), 25.0 mM HEPES was replaced by 2-(N-morpholino)ethanesulfonic acid (MES), and pH was adjusted to 4.5, 5.5, and 6.5 by 1.0 M NaOH. Preincubation was done with 500 μL of prewarmed HBSS at 37 °C for 10 min before adding substrates (250 μL in HBSS) for the uptake experiments. The functionality of SNATs in MCF-7 cells was studied with a known SNAT substrate; the cells were incubated either with [^3H]-L-proline [1 μM (PerkinElmer, Waltham, MA, USA) in uptake buffer HBSS, 250 μL] at 37 °C for 1–60 min or with the uptake buffer (250 μL) consisting of 1–600 μM L-proline (containing 2 μCi [^3H]-L-proline) at 37 °C for 60 min.[38] After incubation, the uptake was stopped by adding 500 μL of ice-cold HBSS, and the cells were washed two times with ice-cold HBSS (2 × 500 μL). The cells were then lysed with 500 μL of 0.1 M NaOH (60 min), and the lysate was mixed with 3.5 mL of Emulsifier safe cocktail (Ultima Gold, PerkinElmer, Waltham, MA, USA). The radioactivity in the cells was measured by liquid scintillation counting (MicroBeta^2 counter, PerkinElmer Waltham, MA, USA). The concentrations of [^3H]-L-proline were calculated from the spiked standard curve at each pH and normalized with the protein concentrations. The SNAT-mediated uptake was confirmed by changing the pH of the uptake buffer in the absence of sodium ions and in the presence of unselective SNAT-ligand, MeAIB (100 μM).[31],[32]

SMILES | cellular uptake at pH 8.5 compared to pH 7.4 (MCF-7 cells) | cellular uptake at pH 8.5 in the absence of Na+ (MCF-7 cells) | Km (MCF-7 cells) | cellular uptake in the presence of MeAIB (SNATs [1]) | IC50 (LAT1 [2]) | Intrinsic Clearance (CLint) of LAT1-mediated uptake (LAT1 [3]) | in vivo Kp values (AUCbrain/ AUCplasma) [4] | cellular uptake at pH 5.5 compared to pH 7.4 (MCF-7 cells) | other results
COc1cc(/C=C/C(=O)NCc2cccc(C[C@H](N)C(=O)O)c2)ccc1O [Compound 8] | much higher | sodium-sensitive | 225 µM | decreased | 14.2 ± 0.91 µM | 0.3 | 0.052 |  | 
CC(C(=O)NCC[C@H](N)C(=O)O)c1cccc(C(=O)c2ccccc2)c1 (some centres unmarked) [Compound 6] | decreased |  | 422 µM | decreased | 89.1 ± 4.19 µM |  | 0.317 |  | 
N[C@@H](Cc1c[nH]c2ccccc12)C(=O)O [L-Trp, reference compound] | did not affect | did not affect |  | did not affect | 50.5 ± 2.63 µM | 146 |  | did not affect | 
N[C@@H](Cc1cccc(C(=O)OCc2ccc(-c3ccc(-c4ccc5c(c4)COC5=O)s3)cc2)c1)C(=O)O [Compound 1] | much higher | decreased; also recorded: sodium-sensitive | 412 µM | decreased | 1.54 ± 0.05 µM | 47.1 | 0.043 |  | Vmax of cellular uptake (MCF-7 cells; pH 5.5): 29 nmol/min/mg protein; cellular uptake, times higher at pH 5.5 compared to pH 7.4 (MCF-7 cells; ratio of Vmax): 3.9 times; cellular uptake, times higher at pH 8.5 compared to pH 7.4 (MCF-7 cells; ratio of Vmax): 9.3 times
CC(C(=O)NCCCC[C@H](N)C(=O)O)c1cccc(C(=O)c2ccccc2)c1 (some centres unmarked) [Compound 5] | much higher | sodium-sensitive | 102 µM | decreased | 82.7 ± 1.45 µM | 1.3 | 0.022 |  | 
CC(C(=O)NCc1cccc(C[C@H](N)C(=O)O)c1)c1cccc(C(=O)c2ccccc2)c1 (some centres unmarked) [Compound 4] | much higher | sodium-sensitive | 40 µM | decreased | 0.12 ± 0.01 µM | 4.5 | 0.017 |  | 
CCCN(CCC)S(=O)(=O)c1ccc(C(=O)O)cc1 [PRB, probenecid, reference compound] | decreased |  |  | did not affect |  |  |  | increased | LAT1 Properties (in words) (LAT1 [2]): Not an LAT1 substrate
COc1cc(/C=C/C(=O)Nc2cccc(C[C@H](N)C(=O)O)c2)ccc1O [Compound 7] | much higher | sodium-sensitive | 184 µM | decreased | 1.1 ± 0.08 µM |  | 0.082 |  | 
CC(C(=O)Nc1cccc(C[C@H](N)C(=O)O)c1)c1cccc(C(=O)c2ccccc2)c1 (some centres unmarked) [Compound 2] | did not affect | did not affect | 291 µM | did not affect | 0.54 ± 0.05 µM | 11.2 | 0.045 | did not affect | 
CNC(C)(C)C(=O)O [MeAIB, α-(methylamino)isobutyric acid] |  |  |  |  |  |  |  |  | inhibition of the uptake of [^3H]-L-proline (SNATs [5]; [^3H]-L-proline 25 μM): negligible; inhibition of the uptake of [^3H]-L-proline (SNATs [5]; [^3H]-L-proline 50 and 100 μM): able to inhibit; LAT1 Properties (in words) (LAT1 [2]): Not an LAT1 substrate
N[C@@H](Cc1cc(I)c(Oc2cc(I)c(O)c(I)c2)c(I)c1)C(=O)O [T4, thyroxin, reference compound] | decreased |  |  | decreased | 18 ± 1.41 µM | 5.5 |  | increased | 
O=C(O)[C@@H]1CCCN1 [[^3H]-L-proline] |  |  |  |  |  |  |  |  | Km (SNATs [5]; MCF-7 cells, 10–600 μM, 60 min): 1470 ± 257 µM; Vmax of [^3H]-L-proline uptake (SNATs [5]; MCF-7 cells, 10–600 μM, 60 min): 1.13 ± 0.15 nmol/min/mg protein; pH dependency of uptake (SNATs [5]; MCF-7 cells, pH 4.5–8.5 in the presence of Na+): significant pH dependency; uptake in the absence of sodium (SNATs [5]; MCF-7 cells, pH 7.4): significantly reduced
CC(C(=O)Nc1ccc(C[C@H](N)C(=O)O)cc1)c1cccc(C(=O)c2ccccc2)c1 (some centres unmarked) [Compound 3] | higher | increased | 131 µM | decreased | 51.16 ± 0.1 µM | 8.3 | 0.050 | higher | 
